Source: US20240245652A1, “METHODS AND COMPOSITIONS FOR MANAGING PAIN COMPRISING DEXMEDETOMIDINE TRANSDERMAL COMPOSITIONS” (Teikoku Pharma USA, Inc., priority 2013, published 2024)
Read-outs that look alike come from different tables or passages of the source.

- solubility of dexmedetomidine (in Duro-Tak 87-2979): less than 2%
- solubility of dexmedetomidine (in Duro-Tak 387/87-2353): 10-15%
- solubility of dexmedetomidine (in hydroxyl functionalized acrylate polymer): less than 1%
- solubility of dexmedetomidine (in lauryl lactate): 5 to 10%
- solubility of dexmedetomidine (in levulinic acid): ~60%
- solubility of dexmedetomidine (in oleic acid): ~40%
- solubility of dexmedetomidine (in propylene glycolmonolaurate): 5 to 10%
SMILES: Cc1cccc([C@H](C)c2cnc[nH]2)c1C [dexmedetomidine, Dexmedetomidine]
